Reference: patent publication EP0584797A2, “Novel cephalosporin compounds and processes for the preparation thereof” (LUCKY LTD., priority 1992, dated 1994)
In brackets after ≈: the same amount, converted by molar mass.

How the values were obtained:
Assay in all cases: minimal inhibitory concentration, two-fold agar dilution
Type in all cases: cell-based
[1] = system: Escherichia coli ATCC 10536; settings: ATCC10536, Muller-Hinton agar, 37°C, 20 hours, read-out: MIC values against the standard strains
Method in brief: (§1)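 Compounds were serially diluted two-fold into Mueller-Hinton agar, and each plate was spot-inoculated with the test strain at 10⁷ CFU per ml. Plates were incubated at 37°C for 20 hours before MIC values were read.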

[2] = system: Pseudomonas aeruginosa ATCC 27853; settings: ATCC27853, Muller-Hinton agar, 37°C, 20 hours, read-out: MIC values against the standard strains
Method in brief: as §1

[3] = system: Staphylococcus aureus ATCC 6538p; settings: ATCC6538P, Muller-Hinton agar, 37°C, 20 hours, read-out: MIC values against the standard strains
Method in brief: as §1

[4] = system: Proteus vulgaris ATCC 6059; settings: ATCC6059, Muller-Hinton agar, 37°C, 20 hours, read-out: MIC values against the standard strains
Method in brief: as §1

[5] = system: Escherichia coli ATCC 25922; settings: ATCC25922, Muller-Hinton agar, 37°C, 20 hours, read-out: MIC values against the standard strains
Method in brief: as §1

[6] = system: Proteus mirabilis ATCC 25933; settings: ATCC25933, Muller-Hinton agar, 37°C, 20 hours, read-out: MIC values against the standard strains
Method in brief: as §1

[7] = system: Acinetobacter calcoaceticus ATCC 15437; settings: ATCC15437, Muller-Hinton agar, 37°C, 20 hours, read-out: MIC values against the standard strains
Method in brief: as §1

[8] = system: Bacillus cereus ATCC 11778; settings: ATCC11778, Muller-Hinton agar, 37°C, 20 hours, read-out: MIC values against the standard strains
Method in brief: as §1

[9] = system: Shigella sonnei ATCC 11060; settings: ATCC11060, Muller-Hinton agar, 37°C, 20 hours, read-out: MIC values against the standard strains
Method in brief: as §1

[10] = system: Pseudomonas aeruginosa ATCC 25619; settings: ATCC25619, Muller-Hinton agar, 37°C, 20 hours, read-out: MIC values against the standard strains
Method in brief: as §1

[11] = system: Salmonella typhimurium ATCC 14028; settings: Salmonella enterica; Muller-Hinton agar; 37°C; 20 hours; read-out: MIC values against the standard strains
Method in brief: as §1

[12] = system: Citrobacter freundii ATCC 8090; settings: ATCC8090, Muller-Hinton agar, 37°C, 20 hours, read-out: MIC values against the standard strains
Method in brief: as §1

[13] = system: Staphylococcus epidermidis ATCC 12228; settings: ATCC12228, Muller-Hinton agar, 37°C, 20 hours, read-out: MIC values against the standard strains
Method in brief: as §1

[14] = system: Enterobacter aerogenes ATCC 29751; settings: Klebsiella aerogenes, ATCC29751; Muller-Hinton agar; 37°C; 20 hours; read-out: MIC values against the standard strains
Method in brief: as §1

[15] = system: Klebsiella pneumoniae ATCC 10031; settings: ATCC10031, Muller-Hinton agar, 37°C, 20 hours, read-out: MIC values against the standard strains
Method in brief: as §1

[16] = system: Micrococcus luteus ATCC 9341; settings: ATCC9341, Muller-Hinton agar, 37°C, 20 hours, read-out: MIC values against the standard strains
Method in brief: as §1

[17] = system: Providencia rettgeri ATCC 9250; settings: ATCC9250, Muller-Hinton agar, 37°C, 20 hours, read-out: MIC values against the standard strains
Method in brief: as §1

[18] = system: Morganella morganii ATCC 8076h; settings: ATCC8076H, Muller-Hinton agar, 37°C, 20 hours, read-out: MIC values against the standard strains
Method in brief: as §1

[19] = system: Shigella flexneri ATCC 11836; settings: ATCC11836, Muller-Hinton agar, 37°C, 20 hours, read-out: MIC values against the standard strains
Method in brief: as §1

[20] = system: Serratia marcescens ATCC 27117; settings: ATCC27117, Muller-Hinton agar, 37°C, 20 hours, read-out: MIC values against the standard strains
Method in brief: as §1

[21] = system: Pseudomonas aeruginosa ATCC 10145; settings: ATCC10145, Muller-Hinton agar, 37°C, 20 hours, read-out: MIC values against the standard strains
Method in brief: as §1

[22] = system: Enterobacter cloacae ATCC 27508; settings: ATCC27508, Muller-Hinton agar, 37°C, 20 hours, read-out: MIC values against the standard strains
Method in brief: as §1

[23] = system: Staphylococcus aureus ATCC 10537; settings: ATCC10537, Muller-Hinton agar, 37°C, 20 hours, read-out: MIC values against the standard strains
Method in brief: as §1

[24] = system: Bacillus megaterium ATCC 9885; settings: Priestia megaterium, ATCC9885; Muller-Hinton agar; 37°C; 20 hours; read-out: MIC values against the standard strains
Method in brief: as §1

[25] = system: Streptococcus faecalis ATCC 29212; settings: Enterococcus faecalis, ATCC29212; Muller-Hinton agar; 37°C; 20 hours; read-out: MIC values against the standard strains
Method in brief: as §1

Row | Compound | MIC [1] [µg/mL] | MIC [2] [µg/mL] | MIC [3] [µg/mL] | MIC [4] [µg/mL] | MIC [5] [µg/mL] | MIC [6] [µg/mL] | MIC [7] [µg/mL] | MIC [8] [µg/mL] | MIC [9] [µg/mL] | MIC [10] [µg/mL] | MIC [11] [µg/mL] | MIC [12] [µg/mL] | MIC [13] [µg/mL] | MIC [14] [µg/mL] | MIC [15] [µg/mL] | MIC [16] [µg/mL] | MIC [17] [µg/mL] | MIC [18] [µg/mL] | MIC [19] [µg/mL] | MIC [20] [µg/mL] | other results
1 | CO/N=C(\C(=O)N[C@@H]1C(=O)N2C(C(=O)[O-])=C(CSc3nc(N)c(N)c(N)[n+]3C)CS[C@H]12)c1csc(N)n1 [Example 7, 7-[(Z)-2-(2-aminothiazol-4-yl)-2-(methoxyimino)acetamido]-3-(4,5,6-triamino-1-methylpyrimidinium-2-yl)thiomethyl-3-cephem-4-carboxylate] | 0.063 (≈ 0.111 µM) | 32 (≈ 56.5 µM) | 0.13 (≈ 0.229 µM) | 0.13 (≈ 0.229 µM) | 0.063 (≈ 0.111 µM) | 0.13 (≈ 0.229 µM) | 4 (≈ 7.06 µM) | 16 (≈ 28.2 µM) | 0.13 (≈ 0.229 µM) | 4 (≈ 7.06 µM) | 0.13 (≈ 0.229 µM) | 0.063 (≈ 0.111 µM) | 0.13 (≈ 0.229 µM) | ≤ 0.008 | 0.016 (≈ 0.0282 µM) | 0.063 (≈ 0.111 µM) | ≤ 0.008 | ≤ 0.008 | 0.031 (≈ 0.0547 µM) | 0.13 (≈ 0.229 µM) | MIC [21]: 32 µg/mL (≈ 56.5 µM); MIC [22]: 0.063 µg/mL (≈ 0.111 µM); MIC [23]: 0.13 µg/mL (≈ 0.229 µM); MIC [24]: 0.13 µg/mL (≈ 0.229 µM); MIC [25]: 128 µg/mL (≈ 226 µM)
2 | CO/N=C(\C(=O)N[C@@H]1C(=O)N2C(C(=O)[O-])=C(CSc3nc(N)cc[n+]3C)CS[C@H]12)c1csc(N)n1 [Example 8, 7-[(Z)-2-(2-aminothiazol-4-yl)-2-(methoxyimino)acetamido]-3-(4-amino-1-methylpyrimidinium-2-yl)thiomethyl-3-cephem-4-carboxylate] | 0.063 (≈ 0.117 µM) | 64 (≈ 119 µM) | 0.5 (≈ 0.932 µM) | 0.25 (≈ 0.466 µM) | 0.063 (≈ 0.117 µM) | 0.25 (≈ 0.466 µM) | 8 (≈ 14.9 µM) | 64 (≈ 119 µM) | 0.13 (≈ 0.242 µM) | 8 (≈ 14.9 µM) | 0.25 (≈ 0.466 µM) | 0.063 (≈ 0.117 µM) | 0.13 (≈ 0.242 µM) | ≤ 0.008 | 0.016 (≈ 0.0298 µM) | 0.13 (≈ 0.242 µM) | ≤ 0.008 | ≤ 0.008 | 0.063 (≈ 0.117 µM) | 0.25 (≈ 0.466 µM) | MIC [21]: 64 µg/mL (≈ 119 µM); MIC [22]: ≤ 0.008 µg/mL; MIC [23]: 0.25 µg/mL (≈ 0.466 µM); MIC [24]: 0.13 µg/mL (≈ 0.242 µM); MIC [25]: 64 µg/mL (≈ 119 µM)
3 | C[n+]1c(SCC2=C(C(=O)[O-])N3C(=O)[C@@H](NC(=O)/C(=N\O)c4csc(N)n4)[C@H]3SC2)nc(N)c(N)c1N [Example 9, 7-[(Z)-2-(2-aminothiazol-4-yl)-2-oxyiminoacetamido]-3-(4,5,6-triamino-1-methylpyrimidinium-2-yl)thiomethyl-3-cephem-4-carboxylate] | 0.031 (≈ 0.0561 µM) | 128 (≈ 232 µM) | 0.25 (≈ 0.452 µM) | 0.063 (≈ 0.114 µM) | 0.031 (≈ 0.0561 µM) | 0.031 (≈ 0.0561 µM) | 0.13 (≈ 0.235 µM) | 16 (≈ 29 µM) | 0.25 (≈ 0.452 µM) | 64 (≈ 116 µM) | 0.25 (≈ 0.452 µM) | 0.016 (≈ 0.029 µM) | 0.063 (≈ 0.114 µM) | 0.016 (≈ 0.029 µM) | 0.031 (≈ 0.0561 µM) | 0.031 (≈ 0.0561 µM) | ≤ 0.008 | ≤ 0.008 | 0.063 (≈ 0.114 µM) | 0.25 (≈ 0.452 µM) | MIC [21]: 128 µg/mL (≈ 232 µM); MIC [22]: ≤ 0.008 µg/mL; MIC [23]: 0.13 µg/mL (≈ 0.235 µM); MIC [24]: 0.063 µg/mL (≈ 0.114 µM); MIC [25]: 2 µg/mL (≈ 3.62 µM)
4 | C[n+]1ccc(N)nc1SCC1=C(C(=O)[O-])N2C(=O)[C@@H](NC(=O)/C(=N\O)c3csc(N)n3)[C@H]2SC1 [Example 10, 7-[(Z)-2-(2-aminothiazol-4-yl)-2-oxyiminoacetamido]-3-(4-amino-1-methylpyrimidinium-2-yl)thiomethyl-3-cephem-4-carboxylate] | 0.25 (≈ 0.478 µM) | > 128 | 0.5 (≈ 0.957 µM) | 1 (≈ 1.91 µM) | 0.25 (≈ 0.478 µM) | 0.25 (≈ 0.478 µM) | 0.063 (≈ 0.121 µM) | 32 (≈ 61.2 µM) | 1 (≈ 1.91 µM) | 128 (≈ 245 µM) | 0.5 (≈ 0.957 µM) | 0.063 (≈ 0.121 µM) | 0.063 (≈ 0.121 µM) | 0.063 (≈ 0.121 µM) | 0.25 (≈ 0.478 µM) | 0.25 (≈ 0.478 µM) | ≤ 0.008 | 0.016 (≈ 0.0306 µM) | 0.016 (≈ 0.0306 µM) | 0.5 (≈ 0.957 µM) | MIC [21]: > 128 µg/mL; MIC [22]: 0.016 µg/mL (≈ 0.0306 µM); MIC [23]: 0.25 µg/mL (≈ 0.478 µM); MIC [24]: 0.13 µg/mL (≈ 0.249 µM); MIC [25]: 8 µg/mL (≈ 15.3 µM)
5 | CC[n+]1c(SCC2=C(C(=O)[O-])N3C(=O)[C@@H](NC(=O)/C(=N\OC(C)(C)C(=O)O)c4csc(N)n4)[C@H]3SC2)nc(N)c(N)c1N [Example 11, 7-[(Z)-2-(2-aminothiazol-4-yl)-2-(carboxyprop-2-oxyimino)acetamido]-3-(4,5,6-triamino-1-ethylpyrimidinium-2-yl)thiomethyl-3-cephem-4-carboxylate] | 0.031 (≈ 0.0475 µM) | 4 (≈ 6.13 µM) | 4 (≈ 6.13 µM) | 0.25 (≈ 0.383 µM) | 0.063 (≈ 0.0965 µM) | 0.25 (≈ 0.383 µM) | 8 (≈ 12.3 µM) | 128 (≈ 196 µM) | 1 (≈ 1.53 µM) | 2 (≈ 3.06 µM) | 1 (≈ 1.53 µM) | 0.13 (≈ 0.199 µM) | 2 (≈ 3.06 µM) | 2 (≈ 3.06 µM) | 0.063 (≈ 0.0965 µM) | 0.13 (≈ 0.199 µM) | 0.063 (≈ 0.0965 µM) | ≤ 0.008 | 0.063 (≈ 0.0965 µM) | 1 (≈ 1.53 µM) | MIC [21]: 8 µg/mL (≈ 12.3 µM); MIC [22]: 0.031 µg/mL (≈ 0.0475 µM); MIC [23]: 2 µg/mL (≈ 3.06 µM); MIC [24]: 0.13 µg/mL (≈ 0.199 µM); MIC [25]: > 128 µg/mL
6 | CC[n+]1ccc(N)nc1SCC1=C(C(=O)[O-])N2C(=O)[C@@H](NC(=O)/C(=N\OC(C)(C)C(=O)O)c3csc(N)n3)[C@H]2SC1 [Example 12, 7-[(Z)-2-(2-aminothiazol-4-yl)-2-(carboxyprop-2-oxyimino)acetamido]-3-(4-amino-1-ethylpyrimidinium-2-yl)thiomethyl-3-cephem-4-carboxylate] | 0.063 (≈ 0.101 µM) | 8 (≈ 12.8 µM) | 4 (≈ 6.42 µM) | 1 (≈ 1.61 µM) | 0.063 (≈ 0.101 µM) | 1 (≈ 1.61 µM) | 8 (≈ 12.8 µM) | 128 (≈ 206 µM) | 0.5 (≈ 0.803 µM) | 2 (≈ 3.21 µM) | 1 (≈ 1.61 µM) | 0.13 (≈ 0.209 µM) | 2 (≈ 3.21 µM) | 2 (≈ 3.21 µM) | ≤ 0.008 | 0.5 (≈ 0.803 µM) | ≤ 0.008 | 0.016 (≈ 0.0257 µM) | 0.25 (≈ 0.401 µM) | 0.5 (≈ 0.803 µM) | MIC [21]: 16 µg/mL (≈ 25.7 µM); MIC [22]: 0.031 µg/mL (≈ 0.0498 µM); MIC [23]: 2 µg/mL (≈ 3.21 µM); MIC [24]: 0.5 µg/mL (≈ 0.803 µM); MIC [25]: 64 µg/mL (≈ 103 µM)
